From patent US20060094693A1, “Methods and compositions for treating glucose-associated conditions, metabolic syndrome, dyslipidemias and other conditions” (Point Therapeutics, Inc., priority 2004, published 2006)

Legend:
Lewis rats = assay: in vivo; settings: Lewis rats, single dose, 5 days observation
Description: Serum DPP-IV inhibition and observation of acute toxicity of amino boronic dipeptides in Lewis rats. […] After observations were completed or at the onset of a moribund state, humane euthanasia was performed by asphyxiation in 100% CO2.

[1] = tested on: Zucker Diabetic Fatty (ZDF) rats; assay: 6 week glycemic control study in Zucker Diabetic Fatty rats; assay type: in vivo; settings: Metformin group, day 14-15
Description: The design of the 6 week long study is depicted in FIG. 8. 60 male Zucker Diabetic Fatty (ZDF) rats (5 weeks of age) were obtained from Charles River Labs. The animals are housed singly and allowed to acclimatize for 1 week before the initiation of the study. 24-hour food intake and body weight was measured gravimetrically twice weekly from the start of housing. HbA1C levels were measured at Day 0, 7, 14, 28 and 46. OGTT was administered on Day 2-3, 15 minutes after the administration of the drugs. OGTT was administered again at the end of the study but in this case, drugs were given 15 hours prior to the OGTT. The 24-hour glucose profile was monitored at day 14-15 of the study.
The insulin sensitivity index was calculated at the termination of the study according to the method described by Matsuda and DeFronzo (Diabetes Care. 1999 Sep.;22(9):1462-70).

[2] = target: T1, soluble recombinant human DPP-IV (Homo sapiens, UniProt P27487); assay: In vitro assay of enzymatic activity of recombinant soluble DPP-IV and inhibition by amino boronic dipeptides; assay type: biochemical; settings: assayed 3 minutes, 78 minutes and 16 hours after addition of Ala-Pro-AFC
T1 construct: immunoglobulin kappa light chain secretion signal (pSecTag2-B) (N, cleaved yes); made in house; host or cells: 293T cells, transient transfection; unpurified culture supernatant used
Text: Production of soluble recombinant human DPP-IV. Based on information on the N-terminus of serum DPP-IV (15), a truncated DPP-IV was engineered in which a signal/leader sequence was joined to the residue in DPP-IV corresponding to the N-terminus of serum DPP-IV to allow secretion. The cDNA encoding the desired truncated human DPP-IV dimer enzyme was engineered into the mammalian secretion vector pSecTag2 (Cat# V900-20, InVitrogen Corporation). The vector, available in A, B or C versions, representing three possible phases for gene fusion, contained an immunoglobulin-kappa light chain secretion signal followed by a selection of restriction sites for gene insertion. The fusion required engineering a restriction site upstream of the chosen fusion amino acid in the 5′ end of the DPP-IV dimer enzyme nucleic acid in phase with the chosen restriction site (Sfi I) in the vector secretion sequence. The chosen fusion amino acid in the 5′ end of the DPP-IV (Ser39) was 3′ of the trans-membrane anchoring domain. The pSecTag2 version B and its Sfi I restriction site was chosen for the fusion because it minimizes the additional N-terminal, vector-encoded residues in the mature secreted protein.
Construction of the fusion was as follows. First, total RNA was isolated from the Caco-2 colorectal carcinoma cell line (ATCC HTB-37) by standard Trizol/phenol/chloroform methodology. The purified RNA (approx. 2.5 μg in a 20 μl reaction) was used to make cDNA using oligo-dT primer and a commercial reverse transcription (RT) kit (InVitrogen). […] The following thermal cycler program was used: 94° C. for 45 sec. initial denaturation, then 30 cycles of 94° C., 10 sec.; 48° C., 6 sec.; 60° C., 4 min; followed by 5-min. extension at 72° C. after cycling.
DNA from the plasmid encoding DPP-IV dimer enzyme was prepared on an approximately 400 μg scale from overnight 30 ml cultures in Luria broth with 100 μg ampicillin per ml using a commercial kit (Qiagen Maxiprep Kit).
In vitro assay of enzmatic activity ofrecombinant soluble DPP-IV and inhibition by amino boronic dipeptides. The assay reaction mixture consisted of 135 μl 50 mM HEPES/Na buffer pH 7.6, 140 mM NaCl, 10-15 gl enzyme-containing culture supernatant, dipeptide substrate Ala-Pro-(7-amino-4-trifluoromethyl coumarin) (Ala-Pro-AFC; Enzyme System Products, Dublin, Calif.) at typically 0.1-1 mM added from a 100 or 400 mM stock in dimethyl formamide. The reaction mixture was incubated at room temperature, and production of the fluorescent AFC product was measured in a fluorometer (excitation, 400 nm; emission 505 nm), either by continuous monitoring or after termination with a one to one-tenth volume of 1 -M sodium acetate, pH 4.5. Fluorometric reading were made with a Molecular Dynamics Spectra Max GeminiXS capable of reading 96-well microtiter plates. The inhibitory activity of amino boronic dipeptides was investigated by preincubation of assay reaction mixtures with varying concentrations of each compound for 10 minutes before the addition of the substrate Ala-Pro-AFC.

[3] = tested on: human bone marrow stromal cells; assay: G-CSF supernatant levels in human bone marrow stromal cell cultures; assay type: cell-based; settings: 1 to 10^4 nM, 24 hours
Description: Human bone marrow stromal cell cultures. Samples of normal human bone marrow were purchased from Cambrex Bioproducts (Walkersville, Md.) and mononuclear cells were purified over Ficoll-Hypaque (Nycomed, Oslo, Norway). Human stromal layers were established by seeding 4×10^7 mononuclear cells into T75 flasks (Corning) containing 20 ml MyeloCult medium (Stem Cell Technologies, Vancouver, BC) supplemented with 10^−6 M hydrocortisone (Sigma) and incubation at 37° C. in 100% humidified 5% CO2 in air. After one week, half the medium was exchanged, and the cultures incubated for approximately one week more, after which time, a semi-confluent cell layer was formed. Stromal cells were harvested by trypsinization using standard technique and 10^5 cells/well were seeded in multi-well plates in 1 ml of fully supplemented DMEM (InVitrogen, Carlsbad, Calif.). […] Multiwell cultures without the addition of amino boronic dipeptides served as controls. […] Supernatant concentrations of human G-CSF were determined by Quantikine enzyme-linked immunosorbent assay (ELISA; R&D Systems, Minneapolis, Minn.) according to the manufacturer's instructions. […] The effect of each amino boronic dipeptide on the level of supernatant G-CSF was determined by calculating a stimulation index (SI): SI=(mean G-CSF concentration in culture with amino boronic dipeptide)/(mean G-CSF concentration in control culture).

serum KC/CXCL1 = assay: Serum KC/CXCL1 levels in vivo (ELISA); parameters: species or system BALB/c mice; settings: 0.2-200 μg/mouse oral, 2 hours
Description: Assay ofserum DPP-IV inhibition and KC/CXCL1 levels in vivo. […] Each mouse received a single administration of each amino boronic dipeptide or saline, and blood samples were withdrawn from mice 2 hours later.
Serum concentration of mouse KC/CXCL1 was determined by Quantikine enzyme-linked immunosorbent assay (ELISA; R&D Systems, Minneapolis, Minn.) according to the manufacturer's instructions. ELISA was performed in duplicate for each sample.

DPP-IV = DPP-IV (Homo sapiens, UniProt P27487); settings: in vivo; cited from earlier work
serum DPP-IV = target: T2, serum DPP-IV (Rattus norvegicus, UniProt P14740); assay: Serum DPP-IV inhibition in Lewis rats; assay type: in vivo; settings: single oral administration, 2 hours
T2 construct: from tissue; host or cells: serum of Lewis rats dosed with the compounds
Description: Assay of serum DPP-IV inhibition in vivo. […] DPP-IV activity was determined by reaction of 10 μl serum with 90 μl of 0.11 mM Ala-Pro-AFC (Enzyme System Products, Dublin, Calif.) in 50 mM HEPES/Na buffer pH 7.6, 140 mM NaCl.

T1 sequence (P27487 39-766 limits assumed): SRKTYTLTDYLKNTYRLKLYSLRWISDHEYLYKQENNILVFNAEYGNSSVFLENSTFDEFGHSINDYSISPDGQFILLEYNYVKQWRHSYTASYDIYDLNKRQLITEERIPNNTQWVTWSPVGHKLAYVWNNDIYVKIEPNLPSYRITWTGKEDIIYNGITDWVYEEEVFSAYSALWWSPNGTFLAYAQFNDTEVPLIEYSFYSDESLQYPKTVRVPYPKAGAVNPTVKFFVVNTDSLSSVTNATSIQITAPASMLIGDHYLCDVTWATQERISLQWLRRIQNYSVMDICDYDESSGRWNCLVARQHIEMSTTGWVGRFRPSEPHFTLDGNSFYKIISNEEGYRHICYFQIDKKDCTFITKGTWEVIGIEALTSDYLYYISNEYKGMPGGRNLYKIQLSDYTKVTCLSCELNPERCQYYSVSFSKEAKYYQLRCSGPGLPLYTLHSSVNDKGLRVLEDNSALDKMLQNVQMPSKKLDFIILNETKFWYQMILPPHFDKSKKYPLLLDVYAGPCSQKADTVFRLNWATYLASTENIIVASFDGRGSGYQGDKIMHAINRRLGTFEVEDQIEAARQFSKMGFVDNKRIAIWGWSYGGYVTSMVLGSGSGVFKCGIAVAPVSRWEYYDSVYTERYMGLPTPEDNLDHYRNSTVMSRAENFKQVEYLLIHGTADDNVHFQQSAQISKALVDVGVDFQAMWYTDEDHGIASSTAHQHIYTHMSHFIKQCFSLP
T2 sequence (P14740 37-767 limits assumed): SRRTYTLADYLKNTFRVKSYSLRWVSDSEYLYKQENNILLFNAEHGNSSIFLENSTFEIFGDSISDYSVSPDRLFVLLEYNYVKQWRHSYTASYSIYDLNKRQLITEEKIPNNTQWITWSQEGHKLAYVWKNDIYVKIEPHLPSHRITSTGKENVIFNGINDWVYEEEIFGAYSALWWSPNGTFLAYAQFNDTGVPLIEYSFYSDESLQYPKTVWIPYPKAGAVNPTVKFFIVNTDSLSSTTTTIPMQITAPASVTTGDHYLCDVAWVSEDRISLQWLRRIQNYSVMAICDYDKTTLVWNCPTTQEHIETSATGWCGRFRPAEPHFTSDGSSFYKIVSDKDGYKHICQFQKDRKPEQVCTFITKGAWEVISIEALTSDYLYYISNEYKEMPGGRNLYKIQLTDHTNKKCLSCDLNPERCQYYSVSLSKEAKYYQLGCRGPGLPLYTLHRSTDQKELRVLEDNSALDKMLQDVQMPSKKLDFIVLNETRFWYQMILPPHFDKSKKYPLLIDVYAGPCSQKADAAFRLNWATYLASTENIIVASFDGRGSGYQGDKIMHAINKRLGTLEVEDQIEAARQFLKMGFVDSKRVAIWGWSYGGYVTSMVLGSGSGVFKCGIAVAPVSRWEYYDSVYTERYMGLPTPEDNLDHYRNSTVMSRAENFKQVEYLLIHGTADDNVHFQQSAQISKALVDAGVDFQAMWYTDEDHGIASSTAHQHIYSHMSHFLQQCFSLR
Chain of DPP-IV (P27487 whole entry, species assumed): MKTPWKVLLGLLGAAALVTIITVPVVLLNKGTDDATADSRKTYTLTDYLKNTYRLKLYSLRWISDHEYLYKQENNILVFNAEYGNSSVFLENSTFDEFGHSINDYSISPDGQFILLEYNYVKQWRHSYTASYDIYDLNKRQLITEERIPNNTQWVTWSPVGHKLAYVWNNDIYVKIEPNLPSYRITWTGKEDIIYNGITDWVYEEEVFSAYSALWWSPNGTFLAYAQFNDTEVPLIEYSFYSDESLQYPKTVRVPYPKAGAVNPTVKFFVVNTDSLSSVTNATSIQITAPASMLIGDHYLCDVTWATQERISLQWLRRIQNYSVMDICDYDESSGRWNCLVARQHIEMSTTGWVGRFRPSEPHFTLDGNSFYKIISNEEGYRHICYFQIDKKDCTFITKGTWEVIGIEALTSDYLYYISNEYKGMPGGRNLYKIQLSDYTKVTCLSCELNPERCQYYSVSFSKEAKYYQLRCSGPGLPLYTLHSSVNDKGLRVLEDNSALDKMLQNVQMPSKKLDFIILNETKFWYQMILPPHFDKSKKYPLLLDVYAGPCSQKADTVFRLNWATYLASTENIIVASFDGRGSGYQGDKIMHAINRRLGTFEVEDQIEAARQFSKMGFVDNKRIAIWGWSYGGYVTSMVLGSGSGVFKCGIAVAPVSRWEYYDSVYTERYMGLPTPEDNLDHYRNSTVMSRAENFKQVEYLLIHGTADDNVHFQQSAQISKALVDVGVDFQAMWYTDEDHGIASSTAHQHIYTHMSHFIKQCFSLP

| Compound | MTD (maximum tolerated dose) (Lewis rats) | persistence of DPP-IV inhibition after preincubation [2] | other results |
| --- | --- | --- | --- |
| C[C@H](N)C(=O)N1CCC[C@H]1B(O)O [Ala-boroPro] | ≧2,000 μg/kg | – | – |
| CN(C)C(=N)N=C(N)N [Metformin, reference compound] | – | – | AUC of 24 hour glucose profile [1]: achieve significance |
| NCCCC[C@H](N)C(=O)N1CCC[C@H]1B(O)O [Lys-boroPro] | ≧2,000 μg/kg | more rapidly reversible | – |
| CC[C@H](C)[C@H](N)C(=O)N1CCC[C@H]1B(O)O [Ile-boroPro] | 120 µg/kg | sustained DPP-IV inhibition | supernatant G-CSF level (stimulation index) [3]: stimulate increased levels of G-CSF; serum levels of KC/CXCL1 (serum KC/CXCL1): stimulate increased serum levels of KC/CXCL1 in a dose-dependent manner |
| CC(C)C[C@H](N)C(=O)N1CCC[C@H]1B(O)O [Leu-boroPro] | 200 µg/kg | more rapidly reversible | supernatant G-CSF level (stimulation index) [3]: stimulate increased levels of G-CSF; serum levels of KC/CXCL1 (serum KC/CXCL1): stimulate increased serum levels of KC/CXCL1 in a dose-dependent manner |
| N[C@@H](Cc1ccccc1)C(=O)N1CCC[C@H]1B(O)O [Phe-boroPro] | – | more rapidly reversible | – |
| C[C@@H](O)[C@H](N)C(=O)N1CCC[C@H]1B(O)O [Thr-boroPro] | 800 µg/kg | – | – |
| gastric inhibitory protein [GIP] | – | – | t1/2 of N-terminal degradation (DPP-IV): ~1 min |
| N[C@@H](CO)C(=O)N1CCC[C@H]1B(O)O [Ser-boroPro] | 4,000 μg/kg | – | – |
| NC(=O)CC[C@H](N)C(=O)N1CCC[C@H]1B(O)O [Gln-boroPro] | ≧800 μg/kg | – | – |
| O=C(C1CCCN1)N1CCCC1B(O)O (stereo not shown) [Pro-boroPro] | ≧2,000 μg/kg | more rapidly reversible | – |
| CSCC[C@H](N)C(=O)N1CCC[C@H]1B(O)O [Met-boroPro] | 160 µg/kg | – | – |
| CC(C)[C@H](N)C(=O)N1CCC[C@H]1B(O)O [Val-boroPro] | 20 µg/kg | – | serum levels of KC/CXCL1 (serum KC/CXCL1): stimulate increased serum levels of KC/CXCL1 in a dose-dependent manner; ID50 (dose causing 50% reduction in serum DPP-IV activity) (serum DPP-IV): 0.009 mg/kg |
| NC(N)=NCCC[C@H](N)C(=O)N1CCC[C@H]1B(O)O [Arg-boroPro] | ≧2,000 μg/kg | more rapidly reversible | – |
